Molecules are shown by their SMILES.

For the assay, the target named is T1, NLRP3 inflammasome (Homo sapiens, UniProt Q96P20).
T1 construct: endogenous in cells; host or cells: THP-1 monocytic cells
T1 sequence (Q96P20 whole entry): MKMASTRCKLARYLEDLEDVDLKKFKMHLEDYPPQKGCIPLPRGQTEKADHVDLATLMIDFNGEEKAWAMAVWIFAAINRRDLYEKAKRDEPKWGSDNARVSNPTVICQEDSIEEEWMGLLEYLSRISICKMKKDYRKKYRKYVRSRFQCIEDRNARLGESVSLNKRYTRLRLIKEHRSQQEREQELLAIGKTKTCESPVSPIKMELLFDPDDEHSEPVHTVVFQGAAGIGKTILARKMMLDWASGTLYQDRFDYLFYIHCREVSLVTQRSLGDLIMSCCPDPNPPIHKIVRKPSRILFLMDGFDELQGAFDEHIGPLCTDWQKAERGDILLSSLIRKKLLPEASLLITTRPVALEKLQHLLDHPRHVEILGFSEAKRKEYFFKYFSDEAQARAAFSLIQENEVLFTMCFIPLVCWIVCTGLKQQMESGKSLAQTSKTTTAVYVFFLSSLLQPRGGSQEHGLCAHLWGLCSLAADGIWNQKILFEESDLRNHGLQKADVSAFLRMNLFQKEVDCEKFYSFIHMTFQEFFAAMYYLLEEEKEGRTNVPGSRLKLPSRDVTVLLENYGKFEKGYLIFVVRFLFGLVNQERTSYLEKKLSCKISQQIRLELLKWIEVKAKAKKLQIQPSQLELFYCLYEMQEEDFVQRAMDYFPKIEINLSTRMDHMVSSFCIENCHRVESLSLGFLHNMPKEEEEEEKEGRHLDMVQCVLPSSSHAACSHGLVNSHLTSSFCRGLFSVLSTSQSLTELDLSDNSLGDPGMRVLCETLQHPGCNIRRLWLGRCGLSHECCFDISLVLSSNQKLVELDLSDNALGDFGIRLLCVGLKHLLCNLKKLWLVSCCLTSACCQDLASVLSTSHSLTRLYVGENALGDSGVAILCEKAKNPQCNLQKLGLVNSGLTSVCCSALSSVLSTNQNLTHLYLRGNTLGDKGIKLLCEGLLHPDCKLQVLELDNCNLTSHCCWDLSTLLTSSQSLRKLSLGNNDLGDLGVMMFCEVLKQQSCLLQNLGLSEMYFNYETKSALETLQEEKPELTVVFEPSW
The experiment in a line: IL-1β secretion assay (NLRP3 IC50) in LPS-primed, nigericin-activated THP-1 cells, HTRF. The assay is classed as cell-based. To be noted: monocytic THP-1 cells; LPS 10 ng/mL 3 h priming, then compound + nigericin 10 μM 2 h; relative IC50, 10 concentrations, geometric mean. In outline:
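THP-1 cells primed with LPS 10 ng/mL for 3 h at 37° C., then compound (10-point 1:3 dilution, 0.1% DMSO) added with 10 μM nigericin for 2 h. Supernatant IL-1β measured by HTRF; relative IC50 from a 4-parameter logistic fit, reported as geometric mean.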
On to `CCN1CC[C@H]2CCN(c3cc(C)c(-c4ccc(C)cc4O)nn3)[C@H]2C1` (racemic) [Example 460, 2-[6-[rac-(3aS,7aR)-6-ethyl-3,3a,4,5,7,7a-hexahydro-2H-pyrrolo[2,3-c]pyridin-1-yl]-4-methyl-pyridazin-3-yl]-5-methyl-phenol], for which the IC50 is less than 0.3 nM.

For the compound `CNC(=O)[C@H]1CN(c2ccc(-c3c(C)cc(C)cc3O)nn2)CCO1` [Example 182, (2R)-4-[6-(2-hydroxy-4,6-dimethylphenyl)pyridazin-3-yl]-N-methylmorpholine-2-carboxamide], the concentration for half-maximal inhibition (IC50) came to 1650 nM.

Turning to `CC(=O)N1CC[C@H]2CCN(c3ccc(-c4c(C)cc(C)cc4O)nn3)[C@H]2C1` (racemic) [Example 394, 1-[rac-(3aR,7aR)-1-[6-(2-hydroxy-4,6-dimethyl-phenyl)pyridazin-3-yl]-3,3a,4,5,7,7a-hexahydro-2H-pyrrolo[2,3-c]pyridin-6-yl]ethanone], the IC50 came out at 310 nM.

For the compound `Cc1cc(C)c(-c2ccc(N3CCO[C@H]4C[C@H](O)C[C@H]43)nn2)c(O)c1` (single isomer, unassigned) [Example 467], the IC50 turned out to be 14 nM.

Take `Cc1cc(C)c(-c2ccc(N3C[C@H]4NCCO[C@@H]4C3)nn2)c(O)c1` [Example 125, 2-[6-[(4aR,7aR)-3,4,4a,5,7,7a-hexahydro-2H-pyrrolo[3,4-b][1,4]oxazin-6-yl]pyridazin-3-yl]-3,5-dimethylphenol]: the IC50 came to 1320 nM.

`Cc1cc(C)c(-c2ccc(N3CCCC4(COCCN4C)C3)nn2)c(O)c1` (stereo not drawn) [Example 441, 3,5-dimethyl-2-[6-(1-methyl-4-oxa-1,8-diazaspiro[5.5]undecan-8-yl)pyridazin-3-yl]phenol]: the concentration for half-maximal inhibition (IC50) is 4670 nM.

Consider `Cc1cc(O)c(-c2ccc(N3CCO[C@H](CO)C3)nn2)c(C(F)(F)F)c1` [Example 509, 2-[6-[(2S)-2-(hydroxymethyl)morpholin-4-yl]pyridazin-3-yl]-5-methyl-3-(trifluoromethyl)phenol], for which the IC50 was determined as 16 nM.

With `CCN1CC[C@H]2OCCN(c3ccc(-c4c(C)cc(C(F)(F)F)cc4O)nn3)[C@@H]2C1` [Example 344, 2-[6-[(4aR,8aR)-6-ethyl-3,4a,5,7,8,8a-hexahydro-2H-pyrido[4,3-b][1,4]oxazin-4-yl]pyridazin-3-yl]-3-methyl-5-(trifluoromethyl)phenol], the IC50 is 223 nM.

On to `Cc1cc(C)c(-c2ccc(N3CCC[C@@H]4CCN(C)C[C@@H]43)nn2)c(O)c1` [Example 519, 2-[6-[(4aR,8aR)-7-methyl-2,3,4,4a,5,6,8,8a-octahydro-1,7-naphthyridin-1-yl]pyridazin-3-yl]-3,5-dimethyl-phenol], for which the IC50 amounted to 7 nM.

As for `CC(=O)N1C[C@@H]2OCCN(c3ccc(-c4c(C)cc(C(F)(F)F)cc4O)nn3)[C@@H]2C1` (single isomer, unassigned) [Example 348], the concentration for half-maximal inhibition (IC50) amounted to 199 nM.

As to `CCc1cc(C)cc(O)c1-c1ccc(N2CC[C@H]3CCN(C)C[C@H]32)nn1` (single isomer, unassigned) [Example 476], the IC50 came to 209 nM.

In the case of `Cc1cc(C(F)(F)F)cc(O)c1-c1ccc(N2CCOc3c[nH]nc32)nn1` [Example 360, 2-[6-(5,6-dihydro-2H-pyrazolo[4,3-b][1,4]oxazin-7-yl)pyridazin-3-yl]-3-methyl-5-(trifluoromethyl)phenol], the IC50 was found to be 420 nM.

On to `Cc1cc(C)c(-c2ccc(N3CC[C@]4(COCCN4C)C3)nn2)c(O)c1` [Example 450, 3,5-dimethyl-2-[6-[(5R)-6-methyl-9-oxa-2,6-diazaspiro[4.5]decan-2-yl]pyridazin-3-yl]phenol], for which the IC50 stood at 2040 nM.

For `Cc1cc(C(F)(F)F)cc(O)c1-c1ccc(N2CCC[C@H]3CCN(C)C[C@H]32)nn1` [Example 524, 2-[6-[(4aS,8aS)-7-methyl-2,3,4,4a,5,6,8,8a-octahydro-1,7-naphthyridin-1-yl]pyridazin-3-yl]-3-methyl-5-(trifluoromethyl)phenol], the IC50 was determined as 8 nM.

With `Cc1cc(C(F)(F)F)cc(O)c1-c1ccc(N2CC3CCC2CN(C)C3)nn1` (stereo not drawn) [Example 417, 3-methyl-2-[6-(3-methyl-3,6-diazabicyclo[3.2.2]nonan-6-yl)pyridazin-3-yl]-5-(trifluoromethyl)phenol], the IC50 worked out at 716 nM.

As for `Cc1cc(C)c(-c2ccc(N3CCO[C@H](CN)C3)nn2)c(O)c1` [Example 89], the IC50 turned out to be 614 nM.

On to `CCc1cc(C)cc(O)c1-c1ccc(N2CC[C@@H]3CCN(C)C[C@@H]32)nn1` (racemic) [Example 459, 3-ethyl-5-methyl-2-[6-[rac-(3aS,7aR)-6-methyl-3,3a,4,5,7,7a-hexahydro-2H-pyrrolo[2,3-c]pyridin-1-yl]pyridazin-3-yl]phenol], for which the 50% inhibitory concentration (IC50) stood at 1 nM.

Regarding `Cc1cc(C)c(-c2ccc(N3CC4(CC[C@@H](O)C4)C3)nn2)c(O)c1` (stereo in doubt) [Example 94, 2-[6-(2-hydroxy-4,6-dimethyl-phenyl)pyridazin-3-yl]-2-azaspiro[3.4]octan-6-ol], the IC50 was determined as 1920 nM.

Turning to `Cc1cc(C)c(-c2ccc(N3CCOC4CCOCC43)nn2)c(O)c1` (racemic) [Example 421, 3,5-dimethyl-2-[6-[rac-(4aS,8aS)-3,4a,5,7,8,8a-hexahydro-2H-pyrano[4,3-b][1,4]oxazin-4-yl]pyridazin-3-yl]phenol], the IC50 is 1230 nM.

As to `Cc1cc(C)c(-c2ccc(N3CC4CCC3CN(C)C4)nn2)c(O)c1` (stereo not drawn) [Example 410, 3,5-dimethyl-2-[6-(3-methyl-3,6-diazabicyclo[3.2.2]nonan-6-yl)pyridazin-3-yl]phenol], the IC50 amounted to 2180 nM.

With `CC(=O)NC[C@H]1CN(c2ccc(-c3c(C)cc(C)cc3O)nn2)CCO1` [Example 105, N-[[(2S)-4-[6-(2-hydroxy-4,6-dimethyl-phenyl)pyridazin-3-yl]morpholin-2-yl]methyl]acetamide], the IC50 came to 335 nM.

In the case of `Cc1cc(C)c(-c2ccc(N3CCOC[C@H]3CN)nn2)c(O)c1` [Example 123, 2-[6-[(3R)-3-(aminomethyl)morpholin-4-yl]pyridazin-3-yl]-3,5-dimethyl-phenol; 2,2,2-trifluoroacetic acid], the IC50 is 2020 nM.

As for `Cc1cccc(O)c1-c1ccc(N2CCO[C@@H]3CCNC[C@@H]32)nn1` [Example 411, 2-[6-[(4aS,8aR)-2,3,4a,5,6,7,8,8a-octahydropyrido[4,3-b][1,4]oxazin-4-yl]pyridazin-3-yl]-3-methyl-phenol], the IC50 stood at 344 nM.

On to `Cc1cc(C)c(-c2nnc(N3CCO[C@H](CO)C3)cc2CO)c(O)c1` [Example 186, 2-[4-(hydroxymethyl)-6-[(2S)-2-(hydroxymethyl)morpholin-4-yl]pyridazin-3-yl]-3,5-dimethyl-phenol], for which the IC50 was determined as 1050 nM.

In the case of `CC(=O)NC[C@@H]1CN(c2ccc(-c3c(C)cc(C)cc3O)nn2)CCO1` [Example 106, N-[[(2R)-4-[6-(2-hydroxy-4,6-dimethyl-phenyl)pyridazin-3-yl]morpholin-2-yl]methyl]acetamide], the IC50 turned out to be 174 nM.

For the compound `Cc1cc(C(F)(F)F)cc(O)c1-c1ccc(N2CCO[C@H]3CN(C)C[C@H]32)nn1` (single isomer, unassigned) [Example 333], the half-inhibitory concentration (IC50) stood at 460 nM.

Take `Cc1cc(C)c(-c2ccc(N3CCCC34CCCN(C)C4)nn2)c(O)c1` (stereo not drawn) [Example 428, 3,5-dimethyl-2-[6-(9-methyl-1,9-diazaspiro[4.5]decan-1-yl)pyridazin-3-yl]phenol]: the IC50 was 1020 nM.

Take `Cc1cc(C)c(-c2ccc(N3CCO[C@@H](C(C)O)C3)nn2)c(O)c1` (single isomer, unassigned) [Example 108]: the IC50 came out at 545 nM.

As for `Cc1cc(C)c(-c2ccc(N3CCOC[C@@H]3CN)nn2)c(O)c1` [Example 124, 2-[6-[(3S)-3-(aminomethyl)morpholin-4-yl]pyridazin-3-yl]-3,5-dimethyl-phenol], the IC50 is 1050 nM.

Turning to `CCN1CC[C@H]2CCN(c3ccc(-c4c(C)cc(Cl)cc4O)nn3)[C@H]2C1` (single isomer, unassigned) [Example 497], the IC50 came out at 0.4 nM.

`CCc1cc(C(F)(F)F)cc(O)c1-c1ccc(N2CC[C@@H]3CCN(C)C[C@@H]32)nn1` (racemic) [Example 452, 2-[6-[rac-(3aS,7aR)-6-methyl-3,3a,4,5,7,7a-hexahydro-2H-pyrrolo[2,3-c]pyridin-1-yl]pyridazin-3-yl]-3-ethyl-5-(trifluoromethyl)phenol]: the IC50 was found to be 5 nM.

As to `Cc1cc(C(F)(F)F)cc(O)c1-c1ccc(N2CCC[C@@H]3[C@H]2CCCN3C)nn1` [Example 516, 2-[6-[(4aR,8aR)-5-methyl-2,3,4,4a,6,7,8,8a-octahydro-1,5-naphthyridin-1-yl]pyridazin-3-yl]-3-methyl-5-(trifluoromethyl)phenol], the half-maximal inhibitory concentration (IC50) was found to be 1080 nM.

`CC(=O)N1C[C@@H]2[C@@H](C1)OCCN2c1ccc(-c2c(C)cc(C(F)(F)F)cc2O)nn1` (racemic) [Example 337, 1-[rac-(4aR,7aR)-4-[6-[2-hydroxy-6-methyl-4-(trifluoromethyl)phenyl]pyridazin-3-yl]-2,3,4a,5,7,7a-hexahydropyrrolo[3,4-b][1,4]oxazin-6-yl]ethanone]: the half-maximal inhibitory concentration (IC50) amounted to 2880 nM.

For the compound `Cc1cc(C(F)(F)F)cc(O)c1-c1ccc(N2CC[C@H](O)CC2=O)nn1` [Example 286, (4S)-4-hydroxy-1-[6-[2-hydroxy-6-methyl-4-(trifluoromethyl)phenyl]pyridazin-3-yl]piperidin-2-one], the concentration for half-maximal inhibition (IC50) was found to be 151 nM.

As for `Cc1cc(C)c(-c2nnc(N3CCO[C@H](CO)C3)cc2C)c(O)c1` [Example 112, 2-[6-[(2S)-2-(hydroxymethyl)morpholin-4-yl]-4-methyl-pyridazin-3-yl]-3,5-dimethyl-phenol], the IC50 was 88 nM.

Turning to `Cc1cc(C)c(-c2ccc(N3CCOc4ccncc43)nn2)c(O)c1` [Example 362, 2-[6-(2,3-dihydropyrido[4,3-b][1,4]oxazin-4-yl)pyridazin-3-yl]-3,5-dimethyl-phenol], the IC50 amounted to 3540 nM.

(Values after US20240360151A1 (SANOFI, priority 2023, published 2024).)
